The values that follow come from patent US10842774B2, “Inhibited expression of PD-L1 and enhanced expression of PD-1” (IN Ingredients, Inc., priority 2017, dated 2020).

For series [1], the system named is PD-1. The series can be described thus: Immunofluorescence densitometry of PDCD-1 (PD-1) expression in human macrophage-like THP-1 cells. Format: cell-based. Conditions: for percent increase of PDCD-1 expression: 24 hours at 37° C., compared to controls; for effect on PDCD-1 expression (in words): all concentrations tested, relative to control. The method, then:
In the present study, human macrophage-like THP-1 cells were used to determine the effects of active agents.
Immunofluorescence studies were utilized to explore the effects of an active composition including Type-A polymers on PD-L1 and PD-1 proteins. Doubly linked procyanidin type-A polymers (3% by weight) in a dried extract of bark from C. burmanni was prepared as described (Anderson et al., J. Agric. Food Chem. 2004; 52:65-70), or provided by IN Ingredients Inc. (formerly Integrity Nutraceuticals, Columbia, Tenn., USA) as CINNULIN PF. The dried extract composition was solvated in DMSO and stored at −20° C. until use. The antibodies (anti-PD-L1, anti-PD-1) were all obtained from Santa Cruz Biotech. All other reagents used were of the highest grade available in commercial products.
(§1) Human monocytic THP-1 cells were purchased from ATCC, Manassas, Va. and were maintained in RPMI culture medium supplemented with 10% heat inactivated fetal bovine serum, 10 mM Hepes, 0.1 mM MEM non-essential amino acids, 1 mM sodium pyruvate, and […] penicillin/streptomycin in an atmosphere containing 5% CO2 and 95% air at 37° C. THP-1 monocytes were differentiated in macrophages by 48 hour incubation with phorbol 12-myristate 13-acetate (PMA, Sigma, P8139) in RPMI media at a concentration of 10 ng/mL. Cells were incubated with or without the treatment compounds at dosages indicated below at 37° C. for 24 hours. In certain treatment with LPS studies, the cells were incubated in fresh F-12 K medium supplemented with 10 μg/mL LPS and the type-A polymers at a concentration (from 3% extract) of 0 μg/ml, 5 μg/ml, 10 μg/ml, 25 μg/ml, or 50 μg/ml for 24 h at 37° C. In other treatment with LPS studies, the cells were incubated in fresh F-12 K medium supplemented with 10 μg/mL LPS and cinnamtannin D-1 at a concentration 2.5 μg/ml, 5 μg/ml, 10 μg/ml or 25 μg/ml for 24 h at 37° C.
(§2) Cells were rinsed with ice-cold PBS and fixed with 4% paraformaldehyde for 10 min at room temperature, followed by permeabilization with 0.3% Triton x-100 for 10 min. After being washed with PBS three times, cells were incubated for 1 h in PBS containing 10% normal goat serum blocking solution. The cells were subjected to immunofluorescence staining with the specific antibodies (human macrophage-like THP-1 cells analyzed for PD-1 (Santa Cruz Biotech)) overnight at 4° C. The cells were then washed with cold PBS three times for 3 min each, and incubated with Alexa-labeled secondary antibodies (Invitrogen) at room temperature for 1 h. The cells were examined by fluorescence microscopy (a Nikon TE2000-S microscope, Nikon, Tokyo, Japan). For cell counts, five to ten random fields with approximately similar density of cells in each field were selected for analysis in each plate. Fluorescence intensities (with pixel values exceeding five times the standard deviation of the background) from these images were semi-quantitatively analyzed by densitometry (ImageJ software, NIH Image).

Series [2] has as its system PD-L1. Briefly: Immunofluorescence densitometry of PD-L1 expression in rat C6 glioma cells. Format: cell-based. To be noted: for percent inhibition of PD-L1 expression: 24 h, compared to controls; for effect on PD-L1 expression (in words): all concentrations tested. The method, then:
(§3) Immunofluorescence studies were utilized to explore the effects of an active composition including Type-A polymers on PD-L1 proteins. Purified cinnamtannin B1 and cinnamtannin D1 are obtained from Planta Analytica (New Milford, Conn.). A water extract of cinnamon with at least 3% by weight type-A polymers was obtained from IN Ingredients sold as CINNULIN PF. Each dried material was solvated in DMSO and stored at −20° C. until use. The antibodies (anti-PD-L1) were all obtained from Santa Cruz Biotech. All other reagents used were of the highest grade available in commercial products.
(§4) C6 glioma cells (CCL-107) were purchased from American Type Culture Collection (ATCC; Manassas, Va.). Cell cultures were grown in F-12 K medium (Gibco/Invitrogen) supplemented with 10% horse serum and 2% fetal bovine serum and maintained in a humidified atmosphere containing 5% CO2 and 95% air at 37° C. Cultures were grown to 85% confluency in 75 mm flasks, and cells were subcultured by trypsinization of subconfluent cultures using 0.05% trypsin with EDTA. C6 glioma cells were seeded at a density of 0.5×10^6 cells per 35 mm dish, and cultured for two days. Cells were grown to confluence during the experimental period. Three studies were performed: 1) no other treatment of the cells; 2) treatment with LPS (10 μg/mL); and 3) treatment with TNF-α (10 ng/mL). In some studies, cells were incubated in fresh F-12K medium supplemented with either cinnamtannin D1 (at a concentration of 0 μg/ml, 5 μg/ml, 10 μg/ml, 20 μg/ml, 25 μg/ml, or 50 μg/ml) or cinnamtannin B1 (at a concentration of 0 μg/ml, 5 μg/ml, 10 μg/ml, 20 μg/ml, 25 μg/ml, or 50 μg/ml) for 24 h at 37° C. In certain treatment with LPS studies, the cells were incubated in fresh F-12 K medium supplemented with 10 μg/mL LPS or incubated in fresh F-12 K medium supplemented with 10 μg/mL LPS and cinnamtannin D1 at a concentration 10 μg/ml or 50 μg/ml (5 μg/ml and 25 μg/ml were not tested) for 24 h at 37° C. In certain treatment with TNF-α studies, the cells were incubated in fresh FK-12 medium supplemented with 10 ng/mL TNF-α and cinnamtannin D1 at a concentration 10 μg/ml, 20 μg/ml or 50 μg/ml (5 μg/ml was not tested) for 24 h at 37° C.
as §2, with “(Rat C6 glioma cells studied for PD-L1 (Santa Cruz Biotech); human” for “(human”

Series [3] has as its system PD-1. Briefly: Immunofluorescence densitometry of PDCD-1 (PD-1) expression in human macrophage-like THP-1 cells. In kind it is cell-based. To be noted: 20 μg/ml, 24 hours at 37° C., compared to controls.
In series [4] the test system is PD-1. Briefly: Immunofluorescence densitometry of LPS-induced PDCD-1 down expression in human macrophage-like THP-1 cells. In kind it is cell-based. Conditions: LPS 10 μg/ml; for percent inhibition of LPS-induced PDCD-1 down expression: 24 h. On the procedure: as §1, §2
Series [5] concerns PD-L1. Briefly: TNF-α-induced overexpression of PD-L1 in rat C6 glioma cells (immunofluorescence densitometry). Format: cell-based. To be noted: TNF-α 10 ng/ml; for percent inhibition of TNF-α-induced overexpression of PD-L1: 24 h, rat C6 glioma cells. On the procedure:
as §3
as §4, with “In certain treatment with TNF-α studies, the cells were incubated in fresh FK-12 medium supplemented with 10 ng/mL TNF-α and cinnamtannin D1 at a concentration 10 μg/ml, 20 μg/ml or 50 μg/ml (5 μg/ml was not tested) for 24 h at 37° C.” left out
(§5) Cells were rinsed with ice-cold PBS and fixed with 4% paraformaldehyde for 10 min at room temperature, followed by permeabilization with 0.3% Triton x-100 for 10 min. […] The cells were subjected to immunofluorescence staining with the specific antibodies (Rat C6 glioma cells studied for PD-L1 (Santa Cruz Biotech); human macrophage-like THP-1 cells analyzed for PD-1 (Santa Cruz Biotech)) overnight at 4° C. […] The cells were examined by fluorescence microscopy (a Nikon TE2000-S microscope, Nikon, Tokyo, Japan). […] Fluorescence intensities (with pixel values exceeding five times the standard deviation of the background) from these images were semi-quantitatively analyzed by densitometry (ImageJ software, NIH Image).

The test system of series [6] is PD-L1. The series can be described thus: LPS-induced overexpression of PD-L1 in rat C6 glioma cells (immunofluorescence densitometry). In kind it is cell-based. Conditions: LPS 10 μg/ml; for percent inhibition of LPS-induced overexpression of PD-L1: 24 h, rat C6 glioma cells. The method, then: as §3
C6 glioma cells (CCL-107) were purchased from American Type Culture Collection (ATCC; Manassas, Va.). Cell cultures were grown in F-12 K medium (Gibco/Invitrogen) supplemented with 10% horse serum and 2% fetal bovine serum and maintained in a humidified atmosphere containing 5% CO2 and 95% air at 37° C. Cultures were grown to 85% confluency in 75 mm flasks, and cells were subcultured by trypsinization of subconfluent cultures using 0.05% trypsin with EDTA. C6 glioma cells were seeded at a density of 0.5×10^6 cells per 35 mm dish, and cultured for two days. Cells were grown to confluence during the experimental period. Three studies were performed: 1) no other treatment of the cells; 2) treatment with LPS (10 μg/mL); and 3) treatment with TNF-α (10 ng/mL). […]
as §5

Series [7] concerns PD-L1. To be noted: treatment for metastatic melanoma (Laubli et al. 2015); cited from earlier work.

For `Oc1cc(O)c2c(c1)O[C@@]1(c3ccc(O)c(O)c3)Oc3cc(O)c4c(c3[C@@H]2C1O)OC(c1ccc(O)c(O)c1)[C@H](O)C4c1c(O)cc(O)c2c1O[C@H](c1ccc(O)c(O)c1)[C@H](O)C2` (some centres unmarked) [cinnamtannin B-1, cinnamtannin B1], the “percent increase of PDCD-1 expression” value is 21% in the series on PD-1 [1] (2.5 μg/ml), 42% in the series on PD-1 [1] (5 μg/ml), 83% with PD-1 [1] (10 μg/ml) and 62% in the series on PD-1 [3]. Further, the “effect on PDCD-1 expression (in words)” value in the series with PD-1 [1] is on record as “significantly enhanced”. In addition, the “percent inhibition of PD-L1 expression” value with PD-L1 [2] (5 μg/ml) came to 35.7%; in the series with PD-L1 [2] (10 μg/ml), 60.8%; in the series with PD-L1 [2] (25 μg/ml), 54.9%; with PD-L1 [2] (50 μg/ml) it was 41.9%. Also, in the series with PD-L1 [2], the “effect on PD-L1 expression (in words)” value is “significantly inhibited”.

Take `Oc1cc(O)c2c(c1)O[C@@]1(c3ccc(O)c(O)c3)Oc3cc(O)c4c(c3[C@@H]2[C@H]1O)O[C@H](c1ccc(O)c(O)c1)[C@H](O)[C@H]4c1c(O)cc(O)c2c1O[C@H](c1ccc(O)c(O)c1)[C@@H](O)C2` [cinnamtannin D-1, (2R,3R,4S,8S,14R, 15R)-2,8-bis(3,4-dihydroxyphenyl)-4-[(2R,3S)-2-(3,4-dihydroxyphenyl)-3,5,7-trihydroxy-3,4-dihydro-2H-1-benzopyran-8-yl]-3,4-dihydro-2H,8H,14H-8,14-methano-1,7,9-trioxabenzo[6,7]cycloocta[1,2-a]naphthalene-3,5,11,13,15-pentol]: the “percent increase of PDCD-1 expression” value in the series on PD-1 [1] (2.5 μg/ml) stood at 18%; with PD-1 [1] (5 μg/ml) it was 45%; in the series on PD-1 [1] (10 μg/ml), 87%; with PD-1 [3], 71%. Moreover, in the series on PD-1 [1], the “effect on PDCD-1 expression (in words)” value is reported as “significantly enhanced”. The “percent inhibition of LPS-induced PDCD-1 down expression” value came to 42% with PD-1 [4] (2.5 μg/ml), 98% with PD-1 [4] (5 μg/ml), 81% in the series on PD-1 [4] (10 μg/ml) and 48% in the series on PD-1 [4] (25 μg/ml). Further, in the series with PD-1 [4] (all concentrations tested), the “effect on LPS-induced PD-1 down-regulation (in words)” value is listed as “significantly improved”. Moreover, the “percent inhibition of PD-L1 expression” value with PD-L1 [2] (5 μg/ml) is reported as 39.9%; with PD-L1 [2] (10 μg/ml), 66.8%; with PD-L1 [2] (25 μg/ml) it was 58.1%; with PD-L1 [2] (50 μg/ml) it was 43.6%. Moreover, the “effect on PD-L1 expression (in words)” value with PD-L1 [2] is recorded as “significantly inhibited”. Moreover, the results for the “percent inhibition of TNF-α-induced overexpression of PD-L1” value in the series with PD-L1 [5] (10 μg/ml), with PD-L1 [5] (20 μg/ml) and with PD-L1 [5] (50 μg/ml) were 32.0%, 42.2% and 43.9%, respectively. Besides, the “effect on TNF-α-induced overexpression of PD-L1 (in words)” value in the series with PD-L1 [5] (all concentrations tested (10, 20, 50 μg/ml)) is listed as “significantly inhibited”. The “percent inhibition of LPS-induced overexpression of PD-L1” value came out at 48.9% in the series on PD-L1 [6] (10 μg/ml) and 53.0% in the series with PD-L1 [6] (50 μg/ml). In addition, the “effect on LPS-induced overexpression of PD-L1 (in words)” value in the series on PD-L1 [6] (all concentrations tested) is on record as “significantly inhibited”.

Regarding `O=C(O)c1cc(O)c(O)c(O)c1` [garlic acid], the results for the “percent increase of PDCD-1 expression” value in the series on PD-1 [1] (10 μg/ml), in the series with PD-1 [1] (50 μg/ml) and in the series with PD-1 [3] were 47%, 52% and 71%, respectively. For the same compound, in the series with PD-1 [1], the “effect on PDCD-1 expression (in words)” value is given as “significantly enhanced”.

For the compound `O=c1c(O)c(-c2ccc(O)c(O)c2)oc2cc(O)cc(O)c12` [quercetin], the “percent increase of PDCD-1 expression” value was found to be 33% in the series on PD-1 [1] (10 μg/ml), 57% in the series with PD-1 [1] (50 μg/ml) and 78% with PD-1 [3]. Moreover, the “effect on PDCD-1 expression (in words)” value with PD-1 [1] is listed as “significantly enhanced”.

Consider `C[C@@H]1O[C@@H](OC[C@H]2O[C@@H](Oc3c(-c4ccc(O)c(O)c4)oc4cc(O)cc(O)c4c3=O)[C@H](O)[C@@H](O)[C@@H]2O)[C@H](O)[C@H](O)[C@H]1O` [rutin], for which the “percent increase of PDCD-1 expression” value amounted to 17% with PD-1 [1] (10 μg/ml), 43% with PD-1 [1] (50 μg/ml) and 48% in the series on PD-1 [3].

Consider “pembrolizumab: antibody therapeutic cited for targeted inhibition of PD-L1 with cardiac side effect”, for which the “cardiac side effect associated with treatment” value in the series on PD-L1 [7] was “acute heart failure due to autoimmune myocarditis”.
